Experimental findings from ChEMBL document CHEMBL1133972, “Solid-Phase synthesis of a library constructed of aromatic phosphate, long alkyl chains and tryptophane components, and identification of potent dipeptide telomerase inhibitors” (Bioorg Med Chem Lett, 2001) are described below.

Broadly, the IC50 is the concentration at which inhibition is half-maximal. A high value points to weaker potency.

This test deals with Telomerase reverse transcriptase (Homo sapiens, UniProt O14746). Description: Inhibitory activity against telomerase extracted from HCT 116 cell lines. The format is cell-free.
Telomerase reverse transcriptase, sequence (O14746 whole entry): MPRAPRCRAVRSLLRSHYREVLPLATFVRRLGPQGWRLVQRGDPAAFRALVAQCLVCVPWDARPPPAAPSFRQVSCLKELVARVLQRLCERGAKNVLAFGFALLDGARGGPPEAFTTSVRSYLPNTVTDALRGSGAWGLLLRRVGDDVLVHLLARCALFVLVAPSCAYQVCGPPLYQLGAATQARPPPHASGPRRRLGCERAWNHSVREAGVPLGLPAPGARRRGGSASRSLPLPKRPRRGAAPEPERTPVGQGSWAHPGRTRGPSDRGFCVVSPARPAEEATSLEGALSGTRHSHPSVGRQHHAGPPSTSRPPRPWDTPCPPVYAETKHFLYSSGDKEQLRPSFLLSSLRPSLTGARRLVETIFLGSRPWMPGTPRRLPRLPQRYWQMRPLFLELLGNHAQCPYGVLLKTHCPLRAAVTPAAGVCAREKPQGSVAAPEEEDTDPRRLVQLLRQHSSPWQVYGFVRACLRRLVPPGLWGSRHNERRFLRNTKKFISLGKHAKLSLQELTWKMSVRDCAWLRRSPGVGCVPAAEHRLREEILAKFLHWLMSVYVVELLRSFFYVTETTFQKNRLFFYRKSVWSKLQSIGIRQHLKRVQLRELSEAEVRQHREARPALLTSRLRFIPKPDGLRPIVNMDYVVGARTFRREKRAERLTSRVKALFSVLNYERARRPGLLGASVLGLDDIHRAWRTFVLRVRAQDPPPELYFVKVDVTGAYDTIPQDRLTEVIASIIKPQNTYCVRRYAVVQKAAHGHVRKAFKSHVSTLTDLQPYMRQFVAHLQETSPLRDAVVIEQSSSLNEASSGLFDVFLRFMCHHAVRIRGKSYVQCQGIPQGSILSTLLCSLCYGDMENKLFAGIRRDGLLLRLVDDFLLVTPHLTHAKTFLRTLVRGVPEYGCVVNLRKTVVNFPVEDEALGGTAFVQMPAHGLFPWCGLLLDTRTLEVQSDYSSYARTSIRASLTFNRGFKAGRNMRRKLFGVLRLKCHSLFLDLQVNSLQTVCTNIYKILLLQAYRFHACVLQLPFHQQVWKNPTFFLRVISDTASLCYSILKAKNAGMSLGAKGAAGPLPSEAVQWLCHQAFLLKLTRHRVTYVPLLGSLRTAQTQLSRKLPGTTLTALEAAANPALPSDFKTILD
Consider `N[C@H](Cc1c[nH]c2ccccc12)C(=O)NCCCCCCCCCCCCOP(=O)(O)Oc1ccccc1Cl`, for which the midpoint of inhibition, the IC50, lay at 45.2 µM. For `CC(C)(C)OC(=O)N[C@H](Cc1cc2ccccc2[nH]1)C(=O)N[C@H](Cc1c[nH]c2ccccc12)C(=O)NCCCC(=O)NCC(=O)NCCCCCCOP(=O)(O)Oc1ccccc1Cl`, the half-maximal inhibitory concentration (IC50) was greater than 100 µM. `Cc1cn(CCCn2cc(CC(=O)NCCCCCCOP(=O)(O)Oc3ccccc3Cl)c3ccccc32)c2ccccc12`: the concentration for half-maximal inhibition (IC50) is 29.4 µM. In turn, `O=C(N[C@H](Cc1c[nH]c2ccccc12)C(=O)NCCCCCCCCCCCCOP(=O)(O)Oc1ccccc1Cl)[C@H]1CCCN1` came in with an IC50 greater than 100 µM. The compound `N[C@H](CCC(=O)O)C(=O)N[C@H](Cc1c[nH]c2ccccc12)C(=O)NCCCCCCCCCCCCOP(=O)(O)Oc1ccccc1Cl` returned an IC50 greater than 100 µM. Compound `O=C(CCCc1c[nH]c2ccccc12)NCCCCCCCCCCCCOP(=O)(O)Oc1ccccc1Cl` yielded an IC50 of 29.7 µM. This lies in the double-digit micromolar range.

In the case of `N[C@H](Cc1c[nH]c2ccccc12)C(=O)NCCCCCCOP(=O)(O)Oc1ccccc1Cl`, the IC50 was greater than 100 µM. In turn, `CC(C)(C)OC(=O)N[C@H](Cc1ccccc1)C(=O)N[C@H](Cc1c[nH]c2ccccc12)C(=O)NCCCCCCCCCCCCOP(=O)(O)Oc1ccccc1Cl` yielded an IC50 of 6.8 µM. This counts as single-digit micromolar.

For `O=C(N[C@H](Cc1c[nH]c2ccccc12)C(=O)NCCCCCCCCCCCCOP(=O)(O)Oc1ccccc1Cl)c1ccccc1`, the concentration for half-maximal inhibition (IC50) turned out to be 7.3 µM.

The compound `CC(C)(C)OC(=O)N[C@@H](Cc1ccccc1)C(=O)N[C@H](Cc1c[nH]c2ccccc12)C(=O)NCCCCCCCCCCCCOP(=O)(O)Oc1ccccc1Cl` yielded an IC50 greater than 100 µM. Compound `CC(C)(C)OC(=O)N[C@H](Cc1c[nH]c2ccccc12)C(=O)NCCCCCCOP(=O)(O)Oc1ccccc1Cl` registered an IC50 greater than 100 µM. Turning to `O=C(N[C@H](Cc1c[nH]c2ccccc12)C(=O)NCCCCCCCCCCCCOP(=O)(O)Oc1ccccc1Cl)OCc1ccccc1`, 3.6 µM corresponded to half-maximal inhibition (IC50). Turning to `CC(C)(C)OC(=O)N[C@H](CCC(=O)O)C(=O)N[C@H](Cc1c[nH]c2ccccc12)C(=O)NCCCCCCCCCCCCOP(=O)(O)Oc1ccccc1Cl`, the IC50 was greater than 100 µM. With `Cc1cn(CCCn2cc(CC(=O)NCCCC(=O)NCC(=O)NCCCCCCOP(=O)(O)Oc3ccccc3Cl)c3ccccc32)c2ccccc12`, the half-inhibitory concentration (IC50) is greater than 100 µM. In the case of `CC(C)(C)OC(=O)N[C@@H](Cc1cc2ccccc2[nH]1)C(=O)N[C@@H](Cc1c[nH]c2ccccc12)C(=O)NCCCC(=O)NCC(=O)NCCCCCCOP(=O)(O)Oc1ccccc1Cl` it was greater than 100 µM; in that of `N[C@@H](Cc1cc2ccccc2[nH]1)C(=O)N[C@@H](Cc1c[nH]c2ccccc12)C(=O)NCCCCCCCCCCCCOP(=O)(O)Oc1ccccc1Cl`, 11.1 µM; in that of `CC(C)(C)OC(=O)N[C@@H](Cc1cc2ccccc2[nH]1)C(=O)N[C@H](Cc1c[nH]c2ccccc12)C(=O)NCCCC(=O)NCC(=O)NCCCCCCOP(=O)(O)Oc1ccccc1Cl`, greater than 100 µM. On to `N[C@H](Cc1ccccc1)C(=O)N[C@H](Cc1c[nH]c2ccccc12)C(=O)NCCCCCCCCCCCCOP(=O)(O)Oc1ccccc1Cl`, for which the IC50 was found to be 22.1 µM. This lies in the double-digit micromolar range.

Compound `Cc1cn(CCCn2cc(CC(=O)NCCCC(=O)N3CCCC3C(=O)NCCCCCCOP(=O)(O)Oc3ccccc3Cl)c3ccccc32)c2ccccc12` (stereo not drawn) gave a half-inhibitory concentration (IC50) of 46.9 µM. In turn, `Cc1cn(CCCn2cc(CC(=O)NCCOCCOCCOCCOP(=O)(O)Oc3ccccc3Cl)c3ccccc32)c2ccccc12` showed an IC50 greater than 100 µM. In the case of `CC(C)(C)OC(=O)N[C@H](Cc1cc2ccccc2[nH]1)C(=O)N[C@H](Cc1c[nH]c2ccccc12)C(=O)NCCCCCCCCCCCCOP(=O)(O)Oc1ccccc1Cl` it was 18.9 µM. In turn, `CC(C)(C)OC(=O)N[C@@H](Cc1cc2ccccc2[nH]1)C(=O)N[C@@H](Cc1c[nH]c2ccccc12)C(=O)NCCCCCCCCCCCCOP(=O)(O)Oc1ccccc1Cl` returned a half-inhibitory concentration (IC50) of 0.3 µM. In the case of `O=C(CNC(=O)OCc1ccccc1)N[C@H](Cc1c[nH]c2ccccc12)C(=O)NCCCCCCCCCCCCOP(=O)(O)Oc1ccccc1Cl`, the concentration for half-maximal inhibition (IC50) came to 12.1 µM. Compared with the last compound, the IC50 is about 40-fold higher. Consider `N[C@@H](Cc1cc2ccccc2[nH]1)C(=O)N[C@@H](Cc1c[nH]c2ccccc12)C(=O)NCCCC(=O)NCC(=O)NCCCCCCOP(=O)(O)Oc1ccccc1Cl`, for which the IC50 was greater than 100 µM. In the case of `Cc1cn(CCCn2cc(CC(=O)NCCCCCCCCCCCCOP(=O)(O)Oc3ccccc3Cl)c3ccccc32)c2ccccc12` it was 3.6 µM. In the case of `CC(=O)N[C@H](Cc1c[nH]c2ccccc12)C(=O)NCCCCCCCCCCCCOP(=O)(O)Oc1ccccc1Cl` it was 90.7 µM; in that of `CC(C)(C)OC(=O)N[C@H](Cc1c[nH]c2ccccc12)C(=O)NCCCCCCCCCCCCOP(=O)(O)Oc1ccccc1Cl`, 18.3 µM; in that of `CC(C)(C)OC(=O)N[C@@H](Cc1c[nH]c2ccccc12)C(=O)NCCCCCCCCCCCCOP(=O)(O)Oc1ccccc1Cl`, 20.7 µM. Turning to `N[C@@H](Cc1c[nH]c2ccccc12)C(=O)NCCCCCCCCCCCCOP(=O)(O)Oc1ccccc1Cl`, the IC50 turned out to be 15.1 µM. The IC50 values of the last two compounds are within 1.5-fold of each other. For `O=C(Cc1c[nH]c2ccccc12)NCCCCCCCCCCCCOP(=O)(O)Oc1ccccc1Cl` the value was 33.9 µM; for `N[C@@H](Cc1cc2ccccc2[nH]1)C(=O)N[C@H](Cc1c[nH]c2ccccc12)C(=O)NCCCC(=O)NCC(=O)NCCCCCCOP(=O)(O)Oc1ccccc1Cl`, greater than 100 µM; for `O=C(N[C@H](Cc1ccccc1)C(=O)NCCCCCCCCCCCCOP(=O)(O)Oc1ccccc1Cl)OCc1ccccc1`, greater than 100 µM. In turn, `CC(C)(C)OC(=O)N1CCC[C@@H]1C(=O)N[C@H](Cc1c[nH]c2ccccc12)C(=O)NCCCCCCCCCCCCOP(=O)(O)Oc1ccccc1Cl` registered a 50% inhibitory concentration (IC50) of 9.5 µM.

`CC(=O)N[C@H](Cc1cc2ccccc2[nH]1)C(=O)N[C@H](Cc1c[nH]c2ccccc12)C(=O)NCCCCCCCCCCCCOP(=O)(O)Oc1ccccc1Cl` returned an IC50 of 22.9 µM. Compared with the last compound, the IC50 is about 2.4-fold higher.

`CC(C)(C)OC(=O)N[C@H](CCC(=O)OCc1ccccc1)C(=O)N[C@H](Cc1c[nH]c2ccccc12)C(=O)NCCCCCCCCCCCCOP(=O)(O)Oc1ccccc1Cl` displayed an IC50 of 6.4 µM. This IC50 lies about 3.6-fold lower than the previous one. In the case of `N[C@H](Cc1cc2ccccc2[nH]1)C(=O)N[C@H](Cc1c[nH]c2ccccc12)C(=O)NCCCC(=O)NCC(=O)NCCCCCCOP(=O)(O)Oc1ccccc1Cl`, the half-maximal inhibitory concentration (IC50) is greater than 100 µM.

In the case of `N[C@H](Cc1cc2ccccc2[nH]1)C(=O)N[C@H](Cc1c[nH]c2ccccc12)C(=O)NCCCCCCCCCCCCOP(=O)(O)Oc1ccccc1Cl`, the IC50 was found to be 13.7 µM.

`CC(C)(C)OC(=O)N[C@H](Cc1cc2ccccc2[nH]1)C(=O)N[C@@H](Cc1c[nH]c2ccccc12)C(=O)NCCCC(=O)NCC(=O)NCCCCCCOP(=O)(O)Oc1ccccc1Cl` (mixture of isomers) displayed an IC50 greater than 100 µM. In the case of `N[C@H](Cc1cc2ccccc2[nH]1)C(=O)N[C@@H](Cc1c[nH]c2ccccc12)C(=O)NCCCCCCCCCCCCOP(=O)(O)Oc1ccccc1Cl` (mixture of isomers), the midpoint of inhibition, the IC50, lay at 10.6 µM. `N[C@@H](Cc1ccccc1)C(=O)N[C@H](Cc1c[nH]c2ccccc12)C(=O)NCCCCCCCCCCCCOP(=O)(O)Oc1ccccc1Cl` (mixture of isomers): the concentration for half-maximal inhibition (IC50) is greater than 100 µM. `CC(C)(C)OC(=O)N[C@@H](Cc1cc2ccccc2[nH]1)C(=O)N[C@H](Cc1c[nH]c2ccccc12)C(=O)NCCCCCCCCCCCCOP(=O)(O)Oc1ccccc1Cl` (mixture of isomers) returned an IC50 greater than 100 µM.

The compound `N[C@H](Cc1cc2ccccc2[nH]1)C(=O)N[C@@H](Cc1c[nH]c2ccccc12)C(=O)NCCCC(=O)NCC(=O)NCCCCCCOP(=O)(O)Oc1ccccc1Cl` (racemic) yielded a concentration for half-maximal inhibition (IC50) greater than 100 µM. Consider `CC(C)(C)OC(=O)N[C@H](Cc1cc2ccccc2[nH]1)C(=O)N[C@@H](Cc1c[nH]c2ccccc12)C(=O)NCCCCCCCCCCCCOP(=O)(O)Oc1ccccc1Cl` (racemic), for which the half-inhibitory concentration (IC50) was greater than 100 µM.
